Results published in US20030091975A1, “Multiple determinants for metabolic phenotypes” (priority 2001, published 2003).
Read-outs that look alike come from different tables or passages of the source.

Assays:
[1] = cited from earlier work
[2] = 2 mg/kg, cited from earlier work
μ-opiod receptor = μ-opiod receptor (Homo sapiens, UniProt P35372); details: relative to morphine; cited from earlier work
[3] = cited from earlier work; remark: listed apart in the source
[4] = cited from earlier work; remark: listed apart in the source
Caffeine-Ab = assay: Competitive antigen ELISA, antibody specificity of caffeine-Ab; type: binding, rabbit; details: ideal antibody specificity result hypothesized; 0 = no inhibition or no higher than 40% at 5×10^−3 M
Procedure: (§1) BSA, antibodies, Tween™ 20 and horse radish peroxidase are added to buffers and water just prior to use. Urine samples are usually collected four hours after drinking a cup of coffee (instant or brewed with approximately 100 mg of caffeine per cup) and stored at −20° C. as 1-mL aliquots in 1.5-mL microtubes. For the ELISA, the urine samples are diluted with isotonic sodium phosphate buffer, pH 7.5 (310 mosM) to give concentrations of caffeine, 1.7-DMX and 1,7-DMU no higher than 3×10^−6 M in the microtiter plate wells. Wells of the ELISA plate are washed with a Nunc-Immuno wash 12 washer. Sixteen milliliters of a solution of 6.6 μg ml^−1 of isolated IgG antibodies is prepared in a 100 mM sodium carbonate buffer, pH 9.6, and 150 μL of this solution is pipetted in each well of a microtiter plate using a eight channel pipet (Brinkmann Transferpette™-8 50-200 μL) and 200 μL Flex tips from Brinkmann). After coating the wells with antibodies at 4° C. for 20 hours, the wells are washed 3 times with the isotonic sodium phosphate buffer containing 0.05% Tween™ 20 (IPBT) and properly drained by inverting the plate and absorbing the liquid on to a piece of paper towel. Thirty milliliters of a solution of a IPBT solution containing 1% BSA is prepared and 150 μL of this solution is pipetted in each well using a eight channel pipet (Brinkmann Transferpette ™-8 50-200 μL) and 200 μL yellow tips (Sarstedt yellow tips for P200 Gilson Pipetman). After 3 hours at room temperature, the wells are washed 3 times with IPBT solution and drained. Samples of 400 μL for determination of caffeine, 1,7-DMX and 1,7-DMU are prepared in 1.5-mL microtubes using Sarstedt yellow tips and a P200 Gilson Pipetman. Then, 200 μL of each sample are pipetted in duplicate in a Falcon 96-well microtest tissue culture plate according to the pattern shown in FIG. 22, using Sarstedt yellow tips and a P200 Gilson Pipetman. Using an eight channel pipet (Brinkmann Transferpette™-8 50-200 μL) and changing the tips of the eight channel pipet (200μL Flex tips from Brinkmann) at each row, 150 μL of samples are transferred in the corresponding wells of a 96-well ELISA microtiter plate coated with antibodies. After the addition of the samples, the microtiter plates are covered and left standing at room temperature for 2 h. While the plate is left standing the substrate buffer without the hydrogen peroxide and o-phenylenediamine hydrochloride is prepared (25 mM citric acid and 50 mM sodium phosphate dibasic buffer, pH 5.0). The microtiter plate is washed 3 times with the IPBT solution and 3 times with a 0.05% Tween™ 20 solution and drained. Then, 50 μL of hydrogen peroxide and 40 mg of o-phenylenediamine are added to the substrate buffer. One hundred fifty microliters (150 μL) of the substrate buffer solution is then added to each well using a eight channel pipet (Brinkmann Transferpette™-8 50-200 μL) and 200 μL Flex tips (Brinkmann). The microtiter plate is covered and shaken for 25-30 min at room temperature and the enzymatic reaction is stopped by adding 50 μL/well of a 2.5 N HCl solution using an eight channel pipet (Brinkmann Transferpette™-8 50-200 μL) and 200L Flex tips (Brinkmann).

1,7-DMX-Ab = assay: Competitive antigen ELISA, antibody specificity of 1,7-DMX-Ab; type: binding, rabbit; details: ideal antibody specificity result hypothesized; 0 = no inhibition or no higher than 40% at 5×10^−3 M
Procedure: as §1

AAMU-Ab = assay: Competitive antigen ELISA, cross-reactivity of AAMU-Ab; type: binding, rabbit; details: for % Cross-Reaction AAMU-Ab: 0 = absence of inhibition or inhibition no higher than 40% at the highest concentration tested (5×10^−3 M)
Procedure: (§2) Buffers and water without additives are filtered through millipore filters and kept for 1 week. BSA, antibodies, Tween™ 20 and horse radish peroxidase conjugates are added to these buffers and water just prior to use. Urine samples are usually collected 4 hours after drinking a cup of coffee (instant or brewed with approximately 100 mg of caffeine per cup) and stored at −80° C. The urine samples are diluted 10 times with sodium phosphate buffer (620 mosm, pH 7.50) and are subsequently diluted with water to give concentrations of AAMU and 1X no higher than 3×10^−6 M in the ELISA. All the pipettings are done with an eight-channel pipette, except those of the antibody and sample solutions. Starting with the last well, 100 μL of a carbonate buffer (100 mM, pH 9.6) containing 2.5 μg mL-1 antibodies are added to each well. After 90 min. at room temperature, the wells are washed three times with […] of TPB: isotonic sodium phosphate buffer (310 mosm, pH 7.50) containing 0.05% Tween™ 20.
(§3) After the initial wash, unoccupied sites are blocked by incubation for 90 min. at room temperature with 100 μL TBP containing 3% BSA. The wells are washed four times with 100 μL TPB. […] The microplate is gently shaken with an orbital shaker at room temperature for 3-4 hours. The wells are washed three times with 100 μL TPB containing 1% BSA and three times with water containing 0.05% Tween ™ 20. To the washed plate is added 150 μL of a substrate buffer composed of citric acid (25 mM) and sodium phosphate dibasic buffer (50 mM, pH 5.0) containing 0.06% hydrogen peroxide and 0.04% o-phenylenediamine hydrochloride.
(§4) Buffers and water without additives were filtered through millipore filters and kept for 1 week. BSA, antibodies, Tween ™ 20 and horse radish peroxidase conjugates were added to these buffers and water just prior to use. Urine samples were usually collected 4 hours after drinking a cup of coffee (instant or brewed with approximately 100 mg of caffeine per cup) and stored at 80° C. They were diluted 10 times with sodium phosphate buffer (620 mosm, pH 7.50) and were subsequently diluted with water to give concentrations of AAMU and 1X no higher than 3×10^−6 M in the ELISA. All the pipettings were done with an eight-channel pipette, except those of the antibody and sample solutions. Starting with the last well, 100 μL of a carbonate buffer (100 mM, pH 9.6) containing 2.5 μg mL^−1 antibodies was pipetted. After 90 min. at room temperature, the wells were washed three times with 100 μL of TPB: isotonic sodium phosphate buffer (310 mosm, pH 7.50) containing 0.05% Tween™ 20.
(§5) After the initial wash, unoccupied sites were blocked by incubation for 90 min. at room temperature with 100 μL TBP containing 3% BSA. The wells were washed four times with 100 μL TPB. […] The microplate was gently shaken with an orbital shaker at room temperature for 3-4 hours. The wells were washed three times with 100 μL with TPB containing 1% BSA and three times with water containing 0.05% Tween™ 20. To the washed plate was added 150 μL of a substrate buffer composed of citric acid (25 mM) and sodium phosphate dibasic buffer (50 mM, pH 5.0) containing 0.06% hydrogen peroxide and 0.04% o-phenylenediamine hydrochloride. After 20 min. at room temperature with shaking, the reaction was stopped with 50 μL of 2.5 N HCl.
(§6) The cross reactivities of AAMU-Ab and 1X-Ab were tested using a wide variety of caffeine metabolites and structural analogs (Table 5 below).

1X-Ab = assay: Competitive antigen ELISA, cross-reactivity of 1X-Ab; type: binding, rabbit; details: 0 = absence of inhibition or inhibition no higher than 40% at the highest concentration tested (5×10^−3 M)
Procedure: as §2, §3, §4, §5, §6

1,7-DMU-Ab = assay: Competitive antigen ELISA, antibody specificity of 1,7-DMU-Ab; type: binding, rabbit; details: ideal antibody specificity result hypothesized; 0 = no inhibition or no higher than 40% at 5×10^−3 M
Procedure: as §1

Chain of μ-opiod receptor (P35372 whole entry): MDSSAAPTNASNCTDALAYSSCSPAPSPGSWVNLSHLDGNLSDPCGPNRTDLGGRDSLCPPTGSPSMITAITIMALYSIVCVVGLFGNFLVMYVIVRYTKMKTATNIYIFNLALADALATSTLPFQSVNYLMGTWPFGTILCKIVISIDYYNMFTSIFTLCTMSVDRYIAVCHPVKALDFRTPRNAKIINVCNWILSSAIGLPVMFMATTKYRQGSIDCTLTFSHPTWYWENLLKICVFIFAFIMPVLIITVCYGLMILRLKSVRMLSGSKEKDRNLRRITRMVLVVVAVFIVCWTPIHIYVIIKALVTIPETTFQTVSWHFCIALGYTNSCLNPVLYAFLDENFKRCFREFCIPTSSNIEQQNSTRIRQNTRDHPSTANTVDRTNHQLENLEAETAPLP

SMILES	% Cross-reaction Caffeine-Ab (Caffeine-Ab) [%]	% Cross-reaction 1,7-DMX-Ab (1,7-DMX-Ab) [%]	% Cross-Reaction AAMU-Ab (AAMU-Ab) [%]	% Cross-Reaction 1X-Ab (1X-Ab) [%]	% Cross-reaction 1,7-DMU-Ab (1,7-DMU-Ab) [%]	further results
CN(C)CCN1C(=O)c2cccc3cc(N)cc(c23)C1=O [Amonafide]						deaths ([1]; 300 mg/m^2, extremely fast acetylators): two women (both oriental) died from severe myelosuppression; response rate ([1]; individuals considered to be properly dosed): 30-50%; overall response rate ([1]; phase II trial, standard 300 mg/m^2 dose for all individuals): 18%
COc1cccc(C2(O)CCCCC2CN(C)C)c1 (centres unmarked) [Tramadol]						side effects vs placebo ([2]; extensive metabolizers): caused side effects significantly more frequently than placebo; analgesic effect ([2]; extensive vs poor metabolizers): better analgesic in extensive metabolizers as compared to poor metabolizers; affinity for the μ-opiod receptor, factor weaker than morphine (μ-opiod receptor): ~6000
COc1ccc2c(c1)[C@]13CCCC[C@@H]1[C@H](C2)N(C)CC3 [Dextromethorphan]						mean performance +/−SE ([3]; extensive metabolizers (EMs)): 95+/−0.5%; mean performance +/−SE ([3]; poor metabolizers (PMs), p<0.05): 86+/−6%
Nc1ccc(S(=O)(=O)c2ccc(N)cc2)cc1 [dapsone]						adverse reactions to dapsone ([4]; fast acetylators): 17%; adverse reactions to dapsone ([4]; slow acetylators): 46%
Cn1c(=O)[nH]c2[nH]c(=O)n(C)c2c1=O [1,7-Dimethyluric acid]	0	0	0	0	100	
O=c1[nH]cnc2nc[nH]c12 [Hypoxanthine]	0	0	0	0	0	
Cn1cnc2[nH]c(=O)[nH]c(=O)c21 [7-Methyl Xanthine]	0	0	0	0	0	
CC(=O)Nc1c(N)[nH]c(=O)[nH]c1=O [5-Acetamino-6-amino-uracil]	0	0	0.6	0	0	
CC(=O)Nc1c(N)n(C)c(=O)[nH]c1=O [5-Acetamino-6-amino-1-methyluracil]	0	0	100	0	0	IC50 (AAMU-Ab; read-out: concentration required for 50% inhibition in the competitive antigen ELISA, AAMU-Ab): 1.5 µM
O=c1[nH]c(=O)c2[nH]c(=O)[nH]c2[nH]1 [Uric acid]	0	0	0	0	0	
